Assays:
[1] = CC50 assay in the anti-HCV replicon assay (CellTiter-Glo); assay type: cell-based, human; settings: human, Huh-7 hepatoma cells harbouring an HCV replicon; Huh-7 HCV replicon cells, 3 days incubation, CellTiter-Glo luminescence
Procedure, shortened: (§1)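 Huh-7 cells harbouring an HCV replicon (6000/well) incubated 3 days at 37° C with 3-fold serially diluted compound (0.5% DMSO final where used). EC50 from luciferase luminescence of lysed cells; CC50 from CellTiter-Glo luminescence in parallel plates.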

[2] = system: HCV replicon; experiment: Anti-HCV replicon assay, EC50 (luciferase readout); assay type: cell-based; settings: Hepatitis C virus, 72 h; Huh-7 HCV replicon cells, 3 days incubation, luciferase luminescence
Procedure, shortened: as §1

SMILES	CC50 at 3 days [1] [µM]	EC50 [2] [µM]
Nc1nc(OCC2CCC2)c2cc(-c3cccnc3)ccc2n1 [Example 118, 4-Cyclobutylmethoxy-6-pyridin-3-yl-quinazolin-2-ylamine]	10 to 20	0.3 to 1
N#Cc1cccc(-c2ccc3nc(N)nc(OCC4CCC4)c3c2)c1 [Example 119, 3-(2-Amino-4-cyclobutylmethoxy-quinazolin-6-yl)-benzonitrile]	10 to 20	1 to 10
Nc1nc(OCC2CCC2)c2cc(-c3cn[nH]c3)ccc2n1 [Example 120, 4-Cyclobutylmethoxy-6-(2H-pyrazol-4-yl)-quinazolin-2-ylamine]	10 to 20	0.3 to 1
Nc1nc(OCC2CCC2)c2cc(-c3ccc(F)c(F)c3F)ccc2n1 [Example 121, 4-Cyclobutylmethoxy-6-(2,3,4-trifluoro-phenyl)-quinazolin-2-ylamine]	> 20	1 to 10
N#Cc1ccc(-c2ccc3nc(N)nc(OCC4CCC4)c3c2)cc1 [Example 122, 4-(2-Amino-4-cyclobutylmethoxy-quinazolin-6-yl)-benzonitrile]	> 20	1 to 10
Nc1nc(OCC2CCC2)c2cc(-c3ccc(C(F)(F)F)cc3Cl)ccc2n1 [Example 124]	> 20	1 to 10
CCOc1nc(N)nc2ccc(-c3ccc(C(=O)N(C)C)cc3)cc12 [Example 125, 4-(2-Amino-4-ethoxy-quinazolin-6-yl)-N,N-dimethyl-benzamide]	> 20	0.3 to 1
CCOc1nc(N)nc2ccc(-c3ccc(C(=O)N4CCCC4)cc3)cc12 [Example 126, [4-(2-Amino-4-ethoxy-quinazolin-6-yl)-phenyl]-pyrrolidin-1-yl-methanone]	> 20	1 to 10
CC(C)Oc1nc(N)nc2ccc(-c3ccc(C(=O)N(C)C)cc3)cc12 [Example 127, 4-(2-Amino-4-isopropoxy-quinazolin-6-yl)-N,N-dimethyl-benzamide]	> 20	1 to 10
CC(C)Oc1nc(N)nc2ccc(-c3ccc(C(=O)N4CCOCC4)cc3)cc12 [Example 128, [4-(2-Amino-4-isopropoxy-quinazolin-6-yl)-phenyl]-morpholin-4-yl-methanone]	> 20	1 to 10
CCOc1nc(N)nc2ccc(-c3ccc(C(=O)NCc4ccccc4)cc3)cc12 [Example 149, 4-(2-Amino-4-ethoxy-quinazolin-6-yl)-N-benzyl-benzamide]	> 20	1 to 10
CCOc1nc(N)nc2ccc(-c3ccc(C(=O)NCC(C)C)cc3)cc12 [Example 150, 4-(2-Amino-4-ethoxy-quinazolin-6-yl)-N-isobutyl-benzamide]	10 to 20	1 to 10
CCOc1nc(N)nc2ccc(-c3ccc(C(=O)NC4CCCCC4)cc3)cc12 [Example 151, 4-(2-Amino-4-ethoxy-quinazolin-6-yl)-N-cyclohexyl-benzamide]	10 to 20	1 to 10
CCCCNC(=O)c1ccc(-c2ccc3nc(N)nc(OCC)c3c2)cc1 [Example 152, 4-(2-Amino-4-ethoxy-quinazolin-6-yl)-N-butyl-benzamide]	> 20	0.3 to 1
CCOc1nc(N)nc2ccc(-c3ccc(C(=O)NC(C)(C)C)cc3)cc12 [Example 153, 4-(2-Amino-4-ethoxy-quinazolin-6-yl)-N-tert-butyl-benzamide]	10 to 20	0.3 to 1
CCOc1nc(N)nc2ccc(-c3ccc(C(=O)NC4CCCC4)cc3)cc12 [Example 154, 4-(2-Amino-4-ethoxy-quinazolin-6-yl)-N-cyclopentyl-benzamide]	10 to 20	0.3 to 1
CCOc1nc(N)nc2ccc(-c3ccc(C(=O)NC(C)C)cc3)cc12 [Example 155, 4-(2-Amino-4-ethoxy-quinazolin-6-yl)-N-isopropyl-benzamide]	10 to 20	0.3 to 1
CCOc1nc(N)nc2ccc(-c3ccc(C(=O)NOC)cc3)cc12 [Example 156, 4-(2-Amino-4-ethoxy-quinazolin-6-yl)-N-methoxy-benzamide]	> 20	0.3 to 1

— US8673929B2, “4,6-di- and 2,4,6-trisubstituted quinazoline derivatives and pharmaceutical compositions useful for treating viral infections” (priority 2006, dated 2014)
